Entries after “also recorded” stand apart in the source; their conditions may differ.
Legend:
[1] = system: indigenous contaminating bacteria in ethanol fermentation mash; test: Reduction of indigenous contaminating bacterial level in fermentation mash from commercial ethanol plants; type: cell-based; conditions: crude form
Method: The inhibitory activity spectrum of GP15cin against different strains was determined. The active concentration range and the minimum inhibition concentration of the bacteriocin are determined using different indicator strains. The activity levels of the bacteriocin present in the raw bacterial culture supernatants and/or in partially purified mixtures were also determined. […] FIG. 2 to FIG. 11 show the effectiveness of GP15cin in reducing the total levels of indigenous bacteria presented in fermentation mash from different commercial ethanol plants. The exact identities of the indigenous bacteria population in different plants are unknown and are likely highly diverse.
GP15cin described herein were produced by a L. plantarum strain, which was isolated from the indigenous LAB populations present during commercial ethanol fermentation. GP15cin can act towards species and/or strains of similar indigenous LAB populations and thus can be used as an effective control for contaminating LAB. […] Either fermentor or mash cooler mash samples were collected from 6 different commercial ethanol plants on 13 different days from 2012 to 2014. Results of 15 independent tests are shown. […] It is likely that the effects on controlling contaminating bacteria and acids will be even more significant if a higher dose of GP5cin is used. […]

[2] = system: Lactobacillus fermentum strain 0315-25; test: Batch culture growth inhibition, bacteriocin and/or phage, growth monitored 24 h; type: cell-based
Method: Bacteriocin alone, bacteriophage alone, and bacteriocin combined with phage were tested against Lactobacillus in batch culture systems. To be specific, logarithmic growth phase cultures of Lactobacillus fermentum strain 0315-25 (OD600 being 0.1) were treated either with single agent at different doses, such as bacteriocin GP15cin alone at different doses (0.1%, 1%, and 10%, v/v), or a phage designated herein as LferInf alone at different MOIs (0.1, 1, and 10), or two agents combined together at different doses, such as 0.1% GP15cin plus LferInf at MOI of 0.1, 0.1% GP15cin plus phage LferInf at MOI of 1, 1% GP15cin plus LferInf at MOI of 0.1, and 1% GP15cin plus phage LferInf at MOI of 1. Culture without any treatment was served as control. LferInf is a bacteriophage isolated from wastewater and found to be effective against a broad host range of Lactobacillus and described in more detail below. The growth of bacteria was monitored for 24 h, and the treatment effects were compared.

[3] = Bacteriocin stability at different temperatures and pH values; type: physicochemical
Method: Either using crude, partially or completely purified form, the chemical characteristics of the bacteriocins can be determined. The determined characteristics include their sensitivities to different enzymes, stability at different temperatures and pH values, etc. Sensitivity of the bacteriocin to proteolytic and lipolytic enzymes, such as trypsin, pepsin, pronase, lipase, etc, was tested. The proteinaceus nature of GP15cin was confirmed. […] The same bacteriocin has optimal activity in the pH range of 4-10.

[4] = system: production host Lactobacillus plantarum GP15; test: Activity against own production host; type: cell-based
Text: As noted above, GP-15cin may be applied alone or in combination with other bacteriocin and/or bacteriophage virulent for unwanted bacteria in the same system. Bacteriocin producing hosts are immune to the bacteriocins produced by themselves. GP-15cin is therefore not active against its own production host, GP15cin. […] Therefore, it is desirable to combine GP-15cin with a different bacteriocin in a cocktail that will kill the bacteria insensitive to GP15cin. Additionally, GP-15cin may be combined with other antimicrobial agents to broaden the scope of effectiveness against the range of unwanted bacteria that are targeted. For example, the combination of bacteriocin and bacteriophage (phage) ensures a broader inhibition spectrum and more efficient control of the bacteria contamination. Phage targeting these non-sensitive strains can be isolated, and be combined with the bacteriocin for a complete control of contaminating bacteria.

[5] = system: LAB isolates from commercial ethanol plants (Lactobacillus, Lactococcus, Weissella, Leuconostoc, Pediococcus, Enterococcus, Streptococcus); test: Inhibitory activity spectrum, culture supernatant spotted on indicator bacterial lawns (LAB isolates); type: cell-based, lactic acid bacteria; conditions: multiple genera
Method: (§1) In the discovery of the unique broad spectrum bacteriocin of this invention, indigenous LAB were isolated and purified from the fermentation mash of the commercial ethanol fermentation plants. The identities of the isolates were determined to the species level based on their 16s rDNA sequences. The capability of the isolated LAB strains to produce antimicrobial compounds was identified. Culture supernatants of the strains to be tested were spotted onto individual indicator bacterial culture lawns, which were prepared using a variety of LAB strains of different genera. After incubation, growth inhibition of the indicator bacteria was seen as a clear zone at and around the spotting position. Any positive activity of bacterial growth inhibition from the tested culture supernatant was confirmed again in the same manner, and the inhibitory activity spectrum of the antimicrobial compound is determined. […]
(§2) The inhibitory activity spectrum of GP15cin against different strains was determined. The active concentration range and the minimum inhibition concentration of the bacteriocin are determined using different indicator strains. The activity levels of the bacteriocin present in the raw bacterial culture supernatants and/or in partially purified mixtures were also determined. […]

[6] = system: non-LAB isolates (strains of Staphylococcus, Enterobacter, Bacillus, Clostridium); test: Inhibitory activity spectrum, culture supernatant spotted on indicator bacterial lawns (non-LAB isolates); type: cell-based
Method: as §1, §2

contaminating LAB = test: Lactic and acetic acid levels in laboratory-scale ethanol fermentation; type: cell-based
Text: GP15cin described herein were produced by a L. plantarum strain, which was isolated from the indigenous LAB populations present during commercial ethanol fermentation. GP15cin can act towards species and/or strains of similar indigenous LAB populations and thus can be used as an effective control for contaminating LAB. […] Either fermentor or mash cooler mash samples were collected from 6 different commercial ethanol plants on 13 different days from 2012 to 2014. Results of 15 independent tests are shown. […] It is likely that the effects on controlling contaminating bacteria and acids will be even more significant if a higher dose of […] is used. The presented results highlight the feasibility of GP15cin application for control of unwanted bacteria in ethanol and other biofuel industries.

plantaricin W [GP15cin]
time in which the reduction effect was seen [1]: ≥ 2 h
reduction of indigenous contaminating bacteria levels ([1]; mash samples from 6 plants, 15 independent tests): consistent reduction effects seen in all tests; also recorded: reduced indigenous contaminating bacteria levels in all mash samples
growth of L. fermentum ([2]; GP15cin alone 0.1% v/v): all treatment, except GP15cin used at 0.1%, suppressed the growth
growth of L. fermentum ([2]; GP15cin alone 1% v/v): suppressed the growth
growth of L. fermentum ([2]; GP15cin alone 10% v/v): suppressed the growth
pH range of optimal activity [3]: 4-10 pH
loss of activity (heat resistance) ([3]; after 2 hours at 120° C.): not a complete loss of activity
loss of activity ([3]; pH 12): complete loss of activity
reduction in activity ([3]; pH values of 1, 2, 3, and 11): 50%
reduction in activity ([3]; temperature of 120° C.): 87.5%
reduction in activity ([3]; temperatures of 65-100° C.): 50%
activity against own production host [4]: not active
killing activity against LAB isolates [5]: broad range killing activity; also recorded: extremely broad killing spectrum
killing activity against non-LAB isolates [6]: showed killing activity
lactic acid and acetic acid levels produced by contaminating LAB (contaminating LAB): significantly reduced
